Assays:
[1] = target: Fibroblast growth factor receptor 1 (Homo sapiens, UniProt P11362); assay: Selectivity interaction (KinomeScan (DiscoverX)) EUB0000595a FGFR1; conditions: at 10 µM
[2] = target: Calcium/calmodulin-dependent protein kinase kinase 2 (Homo sapiens) (UniProt Q96RR4); assay: Selectivity interaction (KinomeScan (DiscoverX)) EUB0001079a CAMKK2; conditions: at 1 µM
[3] = target: T1, cGMP-dependent protein kinase 1 (Homo sapiens) (UniProt Q13976); assay: Selectivity interaction (KinomeScan (DiscoverX)) EUB0000666a PRKG1; conditions: at 10 µM
T1 sequence (whole entry): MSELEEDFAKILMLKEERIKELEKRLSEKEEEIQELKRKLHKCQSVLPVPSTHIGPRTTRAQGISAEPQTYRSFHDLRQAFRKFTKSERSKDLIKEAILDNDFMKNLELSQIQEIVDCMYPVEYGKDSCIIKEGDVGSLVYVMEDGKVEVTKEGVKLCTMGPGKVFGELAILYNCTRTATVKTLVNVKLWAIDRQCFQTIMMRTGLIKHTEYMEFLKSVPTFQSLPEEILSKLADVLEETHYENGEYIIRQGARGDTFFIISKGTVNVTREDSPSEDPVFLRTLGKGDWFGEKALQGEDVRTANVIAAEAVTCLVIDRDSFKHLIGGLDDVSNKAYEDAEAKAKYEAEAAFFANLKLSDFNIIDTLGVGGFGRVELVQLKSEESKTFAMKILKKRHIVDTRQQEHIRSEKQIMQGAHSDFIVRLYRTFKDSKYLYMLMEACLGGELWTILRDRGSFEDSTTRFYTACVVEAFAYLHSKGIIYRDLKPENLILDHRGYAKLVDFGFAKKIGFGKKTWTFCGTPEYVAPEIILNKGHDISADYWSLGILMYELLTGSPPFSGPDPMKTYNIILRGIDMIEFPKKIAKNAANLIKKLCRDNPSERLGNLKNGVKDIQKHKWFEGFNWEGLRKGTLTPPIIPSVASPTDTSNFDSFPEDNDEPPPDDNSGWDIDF

[4] = target: T2, Dual specificity mitogen-activated protein kinase kinase 3 (Homo sapiens) (UniProt P46734); assay: Selectivity interaction (KinomeScan (DiscoverX)) EUB0001049a MAP2K3; conditions: at 1 µM
T2 sequence (whole entry): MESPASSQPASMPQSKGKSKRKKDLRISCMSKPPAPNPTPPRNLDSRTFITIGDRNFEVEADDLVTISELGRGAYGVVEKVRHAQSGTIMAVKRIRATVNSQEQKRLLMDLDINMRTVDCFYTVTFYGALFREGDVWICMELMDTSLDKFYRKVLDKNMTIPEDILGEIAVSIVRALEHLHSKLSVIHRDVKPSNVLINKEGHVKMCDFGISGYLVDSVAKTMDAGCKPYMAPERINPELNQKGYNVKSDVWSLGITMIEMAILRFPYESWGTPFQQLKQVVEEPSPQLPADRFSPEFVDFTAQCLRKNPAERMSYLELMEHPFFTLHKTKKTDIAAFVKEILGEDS

[5] = target: T3, Uncharacterized serine/threonine-protein kinase SBK3 (Homo sapiens) (UniProt P0C264); assay: Selectivity interaction (KinomeScan (DiscoverX)) EUB0001049a SBK3; conditions: at 1 µM
T3 sequence (whole entry): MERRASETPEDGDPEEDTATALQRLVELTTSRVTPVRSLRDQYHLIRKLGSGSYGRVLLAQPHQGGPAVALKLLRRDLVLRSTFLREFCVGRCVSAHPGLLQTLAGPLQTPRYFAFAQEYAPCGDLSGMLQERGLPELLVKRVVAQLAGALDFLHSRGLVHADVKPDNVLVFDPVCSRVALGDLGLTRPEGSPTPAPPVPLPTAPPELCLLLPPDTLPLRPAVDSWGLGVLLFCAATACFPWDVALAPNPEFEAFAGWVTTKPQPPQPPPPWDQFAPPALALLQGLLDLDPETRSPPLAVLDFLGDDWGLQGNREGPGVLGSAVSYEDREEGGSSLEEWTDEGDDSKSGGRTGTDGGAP

[6] = target: Aurora kinase A (Homo sapiens, UniProt O14965); assay: Selectivity interaction (Radiometric kinase assay (using 10 uM ATP)) EUB0000601a STK6
Chain of Aurora kinase A (O14965 whole entry): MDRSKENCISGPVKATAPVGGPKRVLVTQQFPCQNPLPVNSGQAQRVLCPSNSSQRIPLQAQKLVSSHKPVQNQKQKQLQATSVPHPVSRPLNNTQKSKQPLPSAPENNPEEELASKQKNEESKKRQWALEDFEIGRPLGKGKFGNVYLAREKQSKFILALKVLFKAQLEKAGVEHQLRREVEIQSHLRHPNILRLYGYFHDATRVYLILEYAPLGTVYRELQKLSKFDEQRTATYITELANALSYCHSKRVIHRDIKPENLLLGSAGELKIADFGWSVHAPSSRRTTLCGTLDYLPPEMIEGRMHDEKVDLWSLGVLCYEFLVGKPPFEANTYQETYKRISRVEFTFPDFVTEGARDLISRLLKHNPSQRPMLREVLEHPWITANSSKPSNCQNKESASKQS

[7] = target: T4, Serine/threonine-protein kinase TBK1 (Homo sapiens) (UniProt Q9UHD2); assay: Selectivity interaction (KinomeScan (DiscoverX)) EUB0000618a TBK1; conditions: at 10 µM
T4 sequence (whole entry): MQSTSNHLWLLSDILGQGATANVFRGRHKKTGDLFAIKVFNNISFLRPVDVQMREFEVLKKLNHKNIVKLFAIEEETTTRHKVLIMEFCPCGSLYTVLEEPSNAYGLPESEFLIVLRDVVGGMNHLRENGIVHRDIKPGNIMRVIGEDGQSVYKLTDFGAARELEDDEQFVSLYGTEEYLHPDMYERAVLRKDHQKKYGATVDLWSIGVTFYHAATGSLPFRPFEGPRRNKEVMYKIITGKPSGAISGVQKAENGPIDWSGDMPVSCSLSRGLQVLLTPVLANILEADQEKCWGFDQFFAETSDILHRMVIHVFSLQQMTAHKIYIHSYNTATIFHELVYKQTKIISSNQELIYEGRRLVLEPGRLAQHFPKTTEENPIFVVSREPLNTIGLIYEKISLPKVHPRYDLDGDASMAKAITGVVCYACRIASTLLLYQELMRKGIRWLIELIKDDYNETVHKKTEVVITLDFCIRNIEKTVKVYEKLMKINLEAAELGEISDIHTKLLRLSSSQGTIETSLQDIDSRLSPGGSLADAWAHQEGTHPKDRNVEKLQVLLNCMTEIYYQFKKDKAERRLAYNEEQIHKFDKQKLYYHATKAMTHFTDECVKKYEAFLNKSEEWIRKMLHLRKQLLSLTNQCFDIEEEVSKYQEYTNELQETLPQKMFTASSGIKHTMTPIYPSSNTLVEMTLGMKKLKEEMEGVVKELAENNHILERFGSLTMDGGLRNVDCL

Chain of Calcium/calmodulin-dependent protein kinase kinase 2 (Homo sapiens) (Q96RR4 2-588 limits assumed): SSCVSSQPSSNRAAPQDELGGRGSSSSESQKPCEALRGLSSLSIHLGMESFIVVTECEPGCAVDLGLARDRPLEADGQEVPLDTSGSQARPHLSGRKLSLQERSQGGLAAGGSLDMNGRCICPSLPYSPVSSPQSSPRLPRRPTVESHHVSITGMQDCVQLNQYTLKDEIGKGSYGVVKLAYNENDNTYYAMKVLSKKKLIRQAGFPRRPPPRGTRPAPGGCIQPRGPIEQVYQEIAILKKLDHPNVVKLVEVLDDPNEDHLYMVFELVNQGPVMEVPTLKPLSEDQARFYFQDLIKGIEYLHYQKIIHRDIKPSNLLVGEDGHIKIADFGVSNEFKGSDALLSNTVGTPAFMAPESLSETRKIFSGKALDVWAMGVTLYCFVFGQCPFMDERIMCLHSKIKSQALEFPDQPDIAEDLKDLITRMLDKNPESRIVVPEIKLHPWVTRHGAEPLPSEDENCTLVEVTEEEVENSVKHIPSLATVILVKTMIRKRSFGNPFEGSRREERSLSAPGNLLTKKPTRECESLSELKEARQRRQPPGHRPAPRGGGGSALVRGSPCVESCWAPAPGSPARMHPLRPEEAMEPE
Chain of Fibroblast growth factor receptor 1 (P11362 22-822 limits assumed): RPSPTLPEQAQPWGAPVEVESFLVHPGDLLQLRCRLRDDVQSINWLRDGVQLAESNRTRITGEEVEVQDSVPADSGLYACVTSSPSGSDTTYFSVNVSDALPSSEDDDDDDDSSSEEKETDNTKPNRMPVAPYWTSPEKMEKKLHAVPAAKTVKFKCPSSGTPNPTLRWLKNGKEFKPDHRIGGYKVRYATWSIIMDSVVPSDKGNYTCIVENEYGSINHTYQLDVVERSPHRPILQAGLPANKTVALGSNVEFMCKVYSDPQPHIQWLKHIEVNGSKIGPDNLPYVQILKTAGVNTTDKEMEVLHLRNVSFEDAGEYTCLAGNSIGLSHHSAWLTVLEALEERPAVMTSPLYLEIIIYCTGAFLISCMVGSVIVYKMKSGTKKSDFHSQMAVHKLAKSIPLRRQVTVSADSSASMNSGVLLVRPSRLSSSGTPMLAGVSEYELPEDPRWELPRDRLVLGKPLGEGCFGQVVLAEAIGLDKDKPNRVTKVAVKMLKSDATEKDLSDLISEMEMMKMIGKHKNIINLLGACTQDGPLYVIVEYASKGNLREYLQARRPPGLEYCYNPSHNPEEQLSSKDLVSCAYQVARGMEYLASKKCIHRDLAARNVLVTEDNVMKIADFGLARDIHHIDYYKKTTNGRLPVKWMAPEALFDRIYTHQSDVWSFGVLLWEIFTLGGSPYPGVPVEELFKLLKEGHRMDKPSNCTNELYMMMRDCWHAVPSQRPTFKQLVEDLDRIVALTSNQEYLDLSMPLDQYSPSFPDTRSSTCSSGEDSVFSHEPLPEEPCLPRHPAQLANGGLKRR

COCC(=O)NC/C=C/c1ccc2ncnc(Nc3ccc(Oc4ccc(C)nc4)c(C)c3)c2c1 [CP-724714]
% of control [1]: 100%

Nc1cnc(N2CCc3cc(S(=O)(=O)Nc4c(F)cc(Cl)cc4F)cc(N4CCCC4=O)c32)nc1 [TP-020n]
% of control [2]: 100%

O=C(NOC[C@H](O)CO)c1ccc(F)c(F)c1Nc1ccc(I)cc1F
% of control [3]: 100%

COc1cc(Nc2nc(C)cc(-c3cnn4nc(OC)ccc34)n2)cc(C(F)(F)F)c1
% of control [4]: 86% | % of control [5]: 87%

CCc1cc(Nc2nccc(-c3c(-c4ccc(OC)c(C(=O)Nc5c(F)cccc5F)c4)nc4ccccn34)n2)c(OC)cc1N1CCC(N2CCN(S(C)(=O)=O)CC2)CC1
IC50 [6]: > 1500 nM

O[C@H]1CC[C@H](Nc2ncc3nc(Nc4c(F)cc(F)cc4F)n([C@H]4CCOC4)c3n2)CC1
% of control [7]: 74%

— ChEMBL document CHEMBL5465560, “Selectivity Literature for EUbOPEN Chemogenomic Library” (2024)
